Measured values reported in paper PMC12203428, “Discovery of Clonixeril as a Sub-Femtomolar Modulator of the Human STING Receptor” (ACS Central Science, 2025).

How the values were obtained:
[1] = test system: hSTING WT pathway (THP1 Dual KI-hSTING-R232 cells, IRF3 luciferase reporter); assay: THP-1 IRF3 luciferase inhibition assay with diABZI3 as activator; assay type: cell-based, human
Text: To validate our initial observations that CXL has extraordinary potency for a small molecule antagonist, we extended our THP-1 cell luciferase reporter experiment by using diABZI3 as an agonist and using BBCl-amidine (a previously reported STING antagonist) as an antagonist control. , Furthermore, because the results were so unprecedented, we conducted these experiments in a different laboratory (U. Mass Chan. vs Univ. So. FL) and with different individuals performing the experiments.
The cells were grown in RPMI 1640, 2 mM L-glutamine, 25 mM HEPES, 10% heat-inactivated fetal bovine serum, 100 μg/mL Normocin, and Pen-Strep (100 U/mL–100 μg/ mL). For selection, the cells were passaged with and without the addition of antibiotics (10 μg/mL Blasticidin and 100 μg/mL Zeocin) to the growth medium every other passage. […] The cells were counted in a cell counter to obtain a cell density of 1 × 10^6 cells/mL of the test media. […] QUANTI-Luc (InvivoGen) reagent was then diluted in 30 mL of water, 75 μL was added to each well, and luminescence was read immediately (PerkinElmer Envision 2105). The data were normalized to the DMSO only controls (without diABZI3 or 2′,3′-cGAMP), and percentage activation was calculated based on the diABZI3 or 2′,3′-cGAMP only control. […]

[2] = test system: hSTING phosphorylation (p-hSTING) in HEK293 cells; assay: HEK293 pSTING Western blot with 2′,3′-cGAMP; assay type: cell-based, human
Description: Since phosphorylation of Ser366 of hSTING is a necessary step to initiate recruitment, subsequent docking, and phosphorylation of IRF3, we investigated whether CXL would affect hSTING phosphorylation levels in cellulo. Thus, HEK293 cells were treated with varying concentrations of CXL (1fM-1nM) for one hour prior to 2 μM 2′,3′-cGAMP treatment for 90 min (Figure A) or 2 h (Figure C). An optimized dose of 2 μM 2′,3′-cGAMP was based on a dose–response study done for this experiment. A control group was treated with vehicle for 1 h followed by 2 μM 2′,3′-cGAMP for 1 or 2 h (Figure C) Total protein lysates were collected and analyzed by Western blotting using antibodies against p-hSTING, hSTING, and β-actin.
HEK293 cells were seeded at 700,000 cells per 60 mm plate confluency and treated 36 h later. […] Vehicle control group was treated with Escort IV reagent and DMSO for 1 h prior to 2 μM 2′,3′-cGAMP (InvivoGen) for 1 h and 30 min using Escort IV transfection reagent. DMSO concentration was kept constant across all treatment groups. Total cell lysates were collected and analyzed by Western blotting using antibodies against p-STING, STING, and β-actin. […] Data points were analyzed with a one-way ANOVA test using PRISM9 statistical analysis software (GraphPad). A level of p < 0.05 was considered statistically significant.

SUMO-hSTING CTD = SUMO-hSTING CTD (Homo sapiens, UniProt Q86WV6, H232R); assay: Isothermal titration calorimetry; assay type: binding; design: human STING (amino acid 155–343) was synthesized and subcloned into pET28a vector; made in house; host or cells: E. coli BL21(DE3)
Text: In order to further explore the interaction between CXL and hSTING CTD, we employed Isothermal calorimetry (ITC) to measure the heat evolved accompanying CXL’s effect on SUMO-hSTING^WT CTD. […] In Figure A, we show the ITC data we obtained. […]. […] In Figure B, we also find that the binding isotherm is far from steady state or equilibrium, and thus, we could not obtain reliable thermodynamic parameters. Nonetheless, a significant amount of heat was released in the process of CXL interacting with the hSTING CTD. On the other hand, we were most interested in ITC measurements taken at femtomolar concentrations, given the biophysical experiments and in cellulo studies already described. Initial experiments treating the hSTING CTD with femtomolar concentrations of CXL were unsuccessful, likely due to the insensitivity of the instrument. […]. MicroCal ITC200 instrument (Malvern Pananalytical) was used to assess STING and CXL interactions. Both recombinantly purified STING domains (residues 155–343) containing a SUMO tag and CXL were buffer-exchanged and made in the same buffer composition, respectively, to avoid buffer mismatch. The same buffer cocktail was used in all ITC experiments, containing 25 mM HEPES (pH, 7.4), 150 mM NaCl, 5% glycerol, 0.5 mM TCEP, and 5% DMSO. STING protein from −80 °C aliquots was spun down at 12,000 RPM for 5–10 min before each run to remove any aggregates, diluted into the ITC buffer above (either as 40 μM STING alone or as 40 μM STING plus 20 μM 2,3-cGAMP), and loaded into the cell. CXL at various concentrations for different experiments was loaded into the syringe (Hamilton). For the control and reference, an ITC buffer devoid of CXL was used. ITC experiments were conducted at 25 °C using an initial 0.4 μL injection and 19 subsequent injections of 2 μL each at 150 s intervals. Heat of dilution (differential power) of the 19 injections resulting from the binding event was fitted into the nonlinear least-squares equation incorporated in the MicroCal ITC200 analysis software. The K D and other thermodynamic parameters were derived from curve fitting using MicroCal software.

inflammation in rats = test system: inflammation in rats; design: method as in not given; conditions: 30–300 mg/kg, ref not given, cited from earlier work

SUMO-hSTING CTD, sequence (Q86WV6 155-343 H232R): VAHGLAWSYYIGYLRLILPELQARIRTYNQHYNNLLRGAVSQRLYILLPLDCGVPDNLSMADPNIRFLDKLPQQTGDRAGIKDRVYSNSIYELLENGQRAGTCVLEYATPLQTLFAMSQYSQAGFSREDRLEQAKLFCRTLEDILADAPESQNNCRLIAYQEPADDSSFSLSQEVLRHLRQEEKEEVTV

## Cc1c(Cl)cccc1Nc1ncccc1C(=O)OCC(O)CO (stereo not shown) [CXL, clonixeril]
[1]; 50 nM diABZI3
  Response to diABZI3 with CXL 100 nM to 100 aM: inverse dose response
[1]; 50 nM diABZI3, Figure 2C
  Effect of higher concentrations of CXL on diABZI3 signal: enhancement of the diABZI3 signal
[2]; CXL 1 fM-1 nM 1 h, then 2 μM 2′,3′-cGAMP
  Effect on hSTING phosphorylation, CXL prior to 2′,3′-cGAMP: downregulated hSTING phosphorylation close to near basal cellular levels
[2]; same concentration range
  Effect on hSTING phosphorylation, 2′,3′-cGAMP prior to CXL: inhibitory activity was not observed
SUMO-hSTING CTD; 400 μM CXL into 40 μM hSTING CTD
  Heat produced: essentially the same amount of heat as c-diGMP
SUMO-hSTING CTD; 400 μM clonixeril + 20 μM 2′,3′-cGAMP, reviewer's reading of Fig 6C
  Heat released per injection: 13 kcal/mol
SUMO-hSTING CTD; 1.5 fM CXL into 40 μM SUMO-hSTING CTD + 20 μM 2′,3′-cGAMP
  Heat evolution: significant evolution of heat
SUMO-hSTING CTD; 1.5 fM clonixeril into 40 μM hSTING CTD + 20 μM 2′,3′-cGAMP, first 15 injections
  Heat released per injection: -7 to -2 kcal/mol
Inflammation in rats
  Ulcerogenic effects: without producing significant ulcerogenic effects
Inflammation in rats; oral
  Anti-inflammatory effect: anti-inflammatory effects
